The values below come from patent US11136321B2, “Tricyclic compounds” (ALIGOS THERAPEUTICS, INC., priority 2019, dated 2021).

The test system of the assay is HBV. In words: HBV-DNA antiviral assay using HepG2.117 cells. The format is cell-based, genotype D HBV. The following applies: intracellular HBV DNA by qPCR, 3 days incubation. How it is done: The following assay procedure describes the HBV antiviral assay, using HepG2.117 cells, which carry a stably integrated genotype D HBV genome under the control of a Tet-off promoter, and intracellular HBV DNA quantification as endpoint. Cell viability is assessed in parallel by measuring the intracellular ATP content using ATPlite (Perkin Elmer).
On day 0, HepG2.117 cells (which are maintained in routine cell culture with doxycycline present in the medium at a final concentration of 1 μg/mL) were seeded in 96-well plates (white with clear bottom) at a density of 2.0×10^4 cells/well (0.1 mL/well) in medium without doxycycline to induce pgRNA transcription and subsequent formation of HBV particles. The cells were incubated at 37° C. and 5% CO2.
On day 1, medium was removed from each well, the test articles were diluted in culture medium without doxcycyline and 100 μL was added to cell culture wells (9 concentrations, 4-fold dilution). For each plate, 6 untreated (merely DMSO) wells were included. The final concentration of DMSO in the culture medium was 2%. Each plate was prepared in duplicate (one for HBV DNA extraction, one for ATPlite measurement). The cells were incubated at 37° C. and 5% CO2 for 3 days.
On day 4, cell viability was assessed using ATPlite and cell lysates were prepared for HBV DNA extraction and subsequent quantification by qPCR.
Medium was removed from each well and 100 μL of 0.33% NP-40 in H2O was added to each well. Plates were sealed, incubated at 4° C. for 5 mins, vortexed extensively and centrifuged briefly. Next, 35 μL of lysate was added to 65 μL QuickExtract DNA Extraction Solution (Epicentre) in a PCR plate for each well. PCR plate was incubated at 65° C. for 6 mins, 98° C. for 2 mins and finally cooled to 4° C. HBV DNA was then quantified by qPCR with HBV-specific primers and probes as specified in Table 1 using the Bio-Rad SSOAdvanced Universal Probes Supermix on a CFX96 machine (Bio-Rad). The PCR cycle program consisted of 95° C. for 3 mins, followed by 40 cycles at 95° C. for 10 sec and 60° C. for 30 sec.
A DNA standard was prepared by dilution of an IDT gBlock corresponding to the amplicon with concentrations ranging from 10^2 to 10^8 copies/input (i.e. per 4 μL) and used to generate a standard curve by plotting Cq values vs. HBV DNA standard concentration. The quantity of HBV DNA in each sample was determined by interpolating from the standard curve.
Cell viability was calculated as follows: % Cell viability=(luminescence value of test sample)/(average luminescence value of 2% DMSO control)×100%. HBV DNA inhibition was calculated as follows: 100−(HBV DNA copy number of test sample)/(average HBV DNA copy number of 2% DMSO control)×100%. No normalization to entecavir was required due to the excellent dynamic window of this assay. The CC50, EC50 and EC90 values were determined by dose-response curves fitted by GraphPad Prism using “log (agonist) vs. response—Variable slope”.
A general note: In qPCR the cycle at which signal appears reflects the starting amount.

For `CNC(=O)c1ccc(-n2c(=O)c3c(n4ncc(Cc5ccccc5)c24)CN(C(=O)c2ccc(Br)c(C#N)c2)[C@H](C)C3)cc1` (stereo in doubt) [Compound 81, N-methyl-4-[rac-(11R)-5-benzyl-12-(4-bromo-3-cyano-benzoyl)-11-methyl-8-oxo-2,3,7,12-tetrazatricyclo [7.4.0.0 2,6]trideca-1(9),3,5-trien-7-yl] benzamide], under “Hepatitis B virus, 72 h”, the EC50 (commonly the midpoint of the concentration-response curve) is at most 100 nM. `CNC(=O)c1ccc(-n2c(=O)c3c(n4ncc([C@@H](C)c5ccccc5)c24)CN(C(=O)c2ccc(Br)c(C#N)c2)CC3)cc1` (stereo in doubt) [Compound 58, 4-[12-(4-bromo-3-cyano-benzoyl)-8-oxo-5-[rac-(1S)-1-phenylethyl]-2,3,7,12-tetrazatricyclo [7.4.0.0 2,6]trideca-1(9),3,5-trien-7-yl]-N-methyl-benzamide]: for the setting “Hepatitis B virus, 72 h”, the half-maximal effective concentration (EC50) is at most 100 nM. On the same count and under the same terms, the figure for `CNC(=O)c1ccc(-n2c(=O)c3c(n4ncc(Cc5ccc(OC)cc5)c24)CN(C(=O)c2ccc(Br)c(Cl)c2)CC3)cc1` [Compound 88, 4-[12-(4-bromo-3-chloro-benzoyl)-5-[(4-methoxyphenyl)methyl]-8-oxo-2,3,7,12-tetrazatricyclo [7.4.0.0 2,6]trideca-1(9),3,5-trien-7-yl]-N-methyl-benzamide] is at most 100 nM; for `O=C(c1ccc(Br)c(Cl)c1)N1CCc2c(n3ncc(Cc4ccccc4)c3n(-c3ccc(-n4cccn4)cc3)c2=O)C1` [Compound 77, 5-benzyl-12-(4-bromo-3-chloro-benzoyl)-7-(4-pyrazol-1-ylphenyl)-2,3,7,12-tetrazatricyclo [7.4.0.0 2,6] trideca-1(9),3,5-trien-8-one] it is above 5000 nM. Same read-out and setting: the figure for `CNC(=O)c1ccc(-n2c(=O)c3c(n4ncc(NCc5ccccc5F)c24)CN(C(=O)c2ccc(Br)c(Cl)c2)CC3)cc1` [Compound 66, 4-[12-(4-bromo-3-chloro-benzoyl)-5-[(2-fluorophenyl)methylamino]-8-oxo-2,3,7,12-tetrazatricyclo [7.4.0.0 2,6]trideca-1(9),3,5-trien-7-yl]-N-methyl-benzamide] is at most 100 nM.

In turn, `CNC(=O)c1ccc(-n2c(=O)c3c(n4ncc(Nc5ccccc5)c24)CN(C(=O)c2ccc(Br)c(Cl)c2)CC3)cc1` [Compound 40, 4-[5-anilino-12-(4-bromo-3-chloro-benzoyl)-8-oxo-2,3,7,12-tetrazatricyclo [7.4.0.0 2,6]trideca-1(9),3,5-trien-7-yl]-N-methyl-benzamide] registered a concentration for a half-maximal effect (EC50) (Hepatitis B virus, 72 h) of at most 100 nM. Take `N#Cc1cc(C(=O)N2CCc3c(n4ncc(Cc5ccccc5)c4n(-c4ccc(C(N)=O)cc4)c3=O)C2)ccc1Br` [Compound 82, 4-[5-benzyl-12-(4-bromo-3-cyano-benzoyl)-8-oxo-2,3,7,12-tetrazatricyclo [7.4.0.0 2,6]trideca-1(9),3,5-trien-7-yl] benzamide]: the EC50 (Hepatitis B virus, 72 h) is above 5000 nM. Take `CNC(=O)c1ccc(-n2c(=O)c3c(n4ncc(NC(C)c5ccccc5)c24)CN(C(=O)c2ccc(Br)c(C#N)c2)CC3)cc1` (stereo not drawn) [Compound 83, 4-[12-(4-bromo-3-cyano-benzoyl)-8-oxo-5-(1-phenylethylamino)-2,3,7,12-tetrazatricyclo [7.4.0.0 2,6]trideca-1(9),3,5-trien-7-yl]-N-methyl-benzamide]: the 50% effective concentration (EC50) (Hepatitis B virus, 72 h) lay within 100 to 500 nM. Consider `O=C(c1ccc(Cl)c(Cl)c1)N1CCc2c(n3ncc(NCc4ccccc4)c3n(-c3ccccc3)c2=O)C1` [Compound 18, 5-(benzylamino)-12-(3,4-dichlorobenzoyl)-7-phenyl-2,3,7,12-tetraazatricyclo[7.4.0.0^[2,6]]trideca-1(9),3,5-trien-8-one], for which the concentration giving a half-maximal response (EC50) is 500 to 5000 nM. As for `O=C(c1ccc(Br)c(F)c1)N1CCc2c(n3nccc3n(-c3ccccc3)c2=O)C1` [Compound 4, 8-(4-bromo-3-fluorobenzoyl)-4-phenyl-6,7,8,9-tetrahydropyrazolo[1,5-a]pyrido[4,3-e]pyrimidin-5(4H)-one], the half-maximal effective concentration (EC50) (Hepatitis B virus, 72 h) was above 5000 nM.

For `CCNC(=O)c1ccc(-n2c(=O)c3c(n4ncc(Cc5ccccc5)c24)CN(C(=O)c2ccc(Br)c(Cl)c2)CC3)cc1` [Compound 61, 4-[5-benzyl-12-(4-bromo-3-chloro-benzoyl)-8-oxo-2,3,7,12-tetrazatricyclo [7.4.0.0 2,6]trideca-1(9),3,5-trien-7-yl]-N-ethyl-benzamide], the EC50 (Hepatitis B virus, 72 h) was in the range of 500 to 5000 nM.

With `CNC(=O)c1ccc(-n2c(=O)c3c(n4ncc(Cc5ccc(C#N)cc5)c24)CN(C(=O)c2ccc(Br)c(Cl)c2)CC3)cc1` [Compound 43, 4-(8-(4-bromo-3-chlorobenzoyl)-3-(4-cyanobenzyl)-5-oxo-6,7,8,9-tetrahydropyrazolo[1,5-a]pyrido[4,3-e]pyrimidin-4(5H)-yl)-N-methylbenzamide], the EC50 (Hepatitis B virus, 72 h) was at most 100 nM. The compound `O=C(c1ccc(Br)c(Cl)c1)N1CCc2c(n3nccc3n(Cc3ccccc3)c2=O)C1` [Compound 6, 7-benzyl-12-(4-bromo-3-chlorobenzoyl)-2,3,7,12-tetraazatricyclo[7.4.0.0^[2,6]]trideca-1(9),3,5-trien-8-one] displayed a half-maximal effective concentration (EC50) of 500 to 5000 nM. In turn, `NC(=O)c1ccc(-n2c(=O)c3c(n4ncc(NCc5ccccc5)c24)CN(C(=O)c2ccc(Br)c(Cl)c2)CC3)cc1` [Compound 49, 4-[5-(benzylamino)-12-(4-bromo-3-chloro-benzoyl)-8-oxo-2,3,7,12-tetrazatricyclo [7.4.0.0 2,6]trideca-1(9),3,5-trien-7-yl] benzamide] registered a 50% effective concentration (EC50) (Hepatitis B virus, 72 h) of at most 100 nM. Consider `O=C(c1ccc(Cl)c(Cl)c1)N1CCc2c(n3ncc(Cc4ccccc4)c3n(-c3ccccc3)c2=O)C1` [Compound 27, 5-benzyl-12-(3,4-dichlorobenzoyl)-7-phenyl-2,3,7,12-tetrazatricyclo [7.4.0.0 2,6] trideca-1(9),3,5-trien-8-one], for which the concentration for a half-maximal effect (EC50) (Hepatitis B virus, 72 h) was at most 100 nM. `Cc1cc2n(-c3ccccc3)c(=O)c3c(n2n1)CN(C(=O)c1ccc(Br)c(F)c1)CC3` [Compound 7, 12-(4-bromo-3-fluorobenzoyl)-4-methyl-7-phenyl-2,3,7,12-tetraazatricyclo[7.4.0.0^[2,6]]trideca-1(9),3,5-trien-8-one] showed an EC50 above 5000 nM. The compound `CNC(=O)c1ccc(-n2c(=O)c3c(n4ncc(Cc5ccccc5)c24)CN(C(=O)c2ccc(Cl)c(Cl)c2)CC3)cc1` [Compound 34, 4-[5-benzyl-12-(3,4-dichlorobenzoyl)-8-oxo-2,3,7,12-tetrazatricyclo [7.4.0.0 2,6]trideca-1(9),3,5-trien-7-yl]-N-methyl-benzamide] returned a 50% effective concentration (EC50) (Hepatitis B virus, 72 h) of at most 100 nM. Same read-out and setting: the figure for `CC(C)CNc1cnn2c3c(c(=O)n(-c4ccccc4)c12)CCN(C(=O)c1ccc(Cl)c(Cl)c1)C3` [Compound 15, 12-(3,4-dichlorobenzoyl)-5-(isobutylamino)-7-phenyl-2,3,7,12-tetrazatricyclo [7.4.0.0^2,6] trideca-1(9),3,5-trien-8-one] is above 5000 nM. In the case of `CNC(=O)c1ccc(-n2c(=O)c3c(n4ncc(Cc5ccccc5)c24)CN(C(=O)c2ccc(Br)c(Cl)c2)CC3)cc1` [Compound 29, 4-[5-benzyl-12-(4-bromo-3-chlorobenzoyl)-8-oxo-2,3,7,12-tetraazatricyclo[7.4.0.0^[2,6]]trideca-1(9),3,5-trien-7-yl]-N-methylbenzamide], the EC50 is at most 100 nM.

Consider `COc1ccc(-n2c(=O)c3c(n4ncc(NC(C)=O)c24)CN(C(=O)c2ccc(Cl)c(Cl)c2)CC3)cc1` [Compound 21, N-[12-(3,4-dichlorobenzoyl)-7-(4-methoxyphenyl)-8-oxo-2,3,7,12-tetrazatricyclo [7.4.0.0^2,6]trideca-1(9),3,5-trien-5-yl]acetamide], for which the concentration giving a half-maximal response (EC50) is above 5000 nM.

Under “Hepatitis B virus, 72 h”, `CNC(=O)c1ccc(-n2c(=O)c3c(n4ncc(Cc5ccc(OC(F)(F)F)cc5)c24)CN(C(=O)c2ccc(Cl)c(Cl)c2)CC3)cc1` [Compound 36, 4-[12-(3,4-dichlorobenzoyl)-8-oxo-5-[[4-(trifluoromethoxy)phenyl]methyl]-2,3,7,12-tetrazatricyclo [7.4.0.0 2,6]trideca-1(9),3,5-trien-7-yl]-N-methyl-benzamide] had an EC50 of 100 to 500 nM.
